US12613237B2, “Biosensors for detecting arrestin signaling” (MONTANA MOLECULAR, LLC, priority 2018, dated 2026)

Tested on: vasopressin receptor
Assay type: cell-based
Details: HEK293T cells (FIG. 8), compared to vasopressin

CC[C@H](C)[C@@H]1NC(=O)[C@H](Cc2ccc(O)cc2)NC(=O)[C@@H](N)CSSC[C@@H](C(=O)N2CCC[C@H]2C(=O)N[C@@H](CC(C)C)C(=O)NCC(N)=O)NC(=O)[C@H](CC(N)=O)NC(=O)[C@H](CCC(N)=O)NC1=O [oxytocin]
beta arrestin signaling (green fluorescence), speed: significantly slower
